Data: US20140363425A1, “SYSTEMS AND METHODS FOR I[…] HAVING ACTIVATED PR[…]” (priority 2013, published 2014)

Experiments:
[1] = test system: AB32 cells; assay: Whole genome gene expression microarray in AB32 cells; format: cell-based, human; details: 10 nM, 2, 6 and 24 h
Experimental: (§1) Total RNA was isolated using RNAqueous purification columns (Invitrogen). Total RNA (500 ng) was amplified and biotin labelled using Illumina TotalPrep reagents (Invitrogen). The amplified samples (750 ng) were hybridized to human whole genome HT-12 gene expression bead arrays using the recommended Illumina reagents and following the manufacturer's protocol. Raw data were analysed using Genome Studio software (Illumina). After background subtraction data and cubic spline normalization, differential expression p values were determined using the Illumina custom model of Genome Studio. Data were further analysed using Microsoft Excel and SPSS statistical software. Hierarchical clustering and self organizing map clustering were performed using GenePattern.
In reference to FIG. 3B, T-47D and AB32 cells were treated with 10 nM ORG2058 (ORG) or vehicle for 2, 6 and 24 h. Transcript expression was measured by whole genome microarray. Genes that were differentially expressed in ORG2058 treated samples relative to the untreated control at one or more time point in T-47D or AB32 cells were compared by unsupervised hierarchical cluster analysis. Red—increased expression, green—decreased expression relative to vehicle treated control.
In reference to FIG. 10, progestin regulated transcripts were identified in AB32 cells at 2, 6 and 24 h treatment with 10 nM ORG2058 by gene expression profiling. […]

[2] = biological target: T1, PR (Homo sapiens, UniProt P06401); format: cell-based; parameters: endogenous in cells; host or cells: T-47D; details: T-47D breast cancer cells, 10 nM, 45 minutes, false discovery rate 0.27%
T1 sequence (P06401 1-933): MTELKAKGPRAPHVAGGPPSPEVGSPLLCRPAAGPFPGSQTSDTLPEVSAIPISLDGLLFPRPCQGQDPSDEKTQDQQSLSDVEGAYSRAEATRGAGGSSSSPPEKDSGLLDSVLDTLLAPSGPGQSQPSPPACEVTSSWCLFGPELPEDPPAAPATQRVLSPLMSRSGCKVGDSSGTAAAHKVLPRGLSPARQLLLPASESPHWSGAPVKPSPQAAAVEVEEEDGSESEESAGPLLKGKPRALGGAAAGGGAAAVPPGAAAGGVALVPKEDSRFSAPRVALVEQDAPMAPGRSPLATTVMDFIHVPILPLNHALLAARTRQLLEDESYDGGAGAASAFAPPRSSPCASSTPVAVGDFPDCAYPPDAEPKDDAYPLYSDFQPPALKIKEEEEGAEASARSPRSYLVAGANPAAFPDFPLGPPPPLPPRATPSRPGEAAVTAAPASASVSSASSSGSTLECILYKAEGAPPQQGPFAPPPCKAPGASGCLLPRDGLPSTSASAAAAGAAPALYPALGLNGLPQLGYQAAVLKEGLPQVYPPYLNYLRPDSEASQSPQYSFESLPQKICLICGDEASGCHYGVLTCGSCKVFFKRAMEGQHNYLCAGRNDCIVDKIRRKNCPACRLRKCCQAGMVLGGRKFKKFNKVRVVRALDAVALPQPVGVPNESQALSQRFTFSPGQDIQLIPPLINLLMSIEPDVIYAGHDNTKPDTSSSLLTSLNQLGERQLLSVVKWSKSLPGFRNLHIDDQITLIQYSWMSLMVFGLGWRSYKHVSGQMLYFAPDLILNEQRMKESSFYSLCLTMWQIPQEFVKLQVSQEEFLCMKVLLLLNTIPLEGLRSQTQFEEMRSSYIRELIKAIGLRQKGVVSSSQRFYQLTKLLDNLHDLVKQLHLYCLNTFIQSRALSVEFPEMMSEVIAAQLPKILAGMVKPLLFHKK
Experimental: (§2) In one aspect, PR genomic interactions were mapped in T-47D breast cancer cells and in the AB32 cell line: a stable PR expressing clone of the MCF-10A immortalized normal breast cell line. Cells were treated with the progestin ORG2058 (10 nM, 45 minutes), followed by PR-chromatin immunoprecipitation (ChIP) and Illumina sequencing. Sequences were aligned to the human genome and genomic regions enriched in the alignments were identified using the Bowtie and ERANGE [38] software tools (false discovery rate 0.27%).
(§3) Cells were cultured to 80% confluency in 15 cm tissue culture dishes, then treated for 45 minutes with 10 nM ORG2058 or vehicle. Chromatin was subsequently cross-linked by the addition of formaldehyde to the culture medium to a final concentration of 1% and incubation for 10 minutes at 37° C. Media were immediately removed and the cells were washed with cold phosphate buffered saline and harvested by scraping. Cells were collected by centrifugation and pellets were lysed 10 minutes at 4° C. in SDS buffer (1% SDS; 10 mM EDTA; 50 mM Tris-HCl, pH 8). The lysates were sonicated at 4° C. with a Branson 450 sonicator, using seven one minute bursts at 40% amplitude and 60% duty, each separated by a rest of at least one minute. Lysates were centrifuged at 13,000×g at 4° C. for 15 minutes to remove debris. […]

[3] = test system: PR; format: cell-based, human; details: AB32 cells (PR expressing clone of MCF-10A), 10 nM, 45 minutes, false discovery rate 0.27%
Experimental: as §2, §3

[4] = test system: T-47D cells; assay: Whole genome gene expression microarray in T-47D cells; format: cell-based, human; details: 10 nM, 2, 6 and 24 h, self-organizing map clustering
Experimental: as §1
(A and B) Overlap between PR binding regions and progestin regulated genes in (A) T-47D and (B) AB32 cells. (C and D) PR binding regions within 10 kb or in the 5′-UTR of genes regulated at 2, 6 and 24 h in (C) T-47D and (D) AB32 cells. (E) Genes with patterns of progestin regulation in T-47D cells that grouped together were identified by SOM cluster analysis using Gene Pattern. […]
In reference to FIG. 3B, T-47D and AB32 cells were treated with 10 nM ORG2058 (ORG) or vehicle for 2, 6 and 24 h. Transcript expression was measured by whole genome microarray. […]

[5] = biological target: T1, PR; details: cited from earlier work

## CC[C@@H]1C[C@H]2[C@@H]3CCC4=CC(=O)CC[C@@H]4[C@H]3CC[C@]2(C)[C@H]1C(=O)CO [ORG2058, (8R,9S,10R,13S,14S,16R,17S)-16-ethyl-17-(2-hydroxyacetyl)-13-methyl-2,6,7,8,9,10,11,12,14,15,16,17-dodecahydro-1H-cyclopenta[a]phenanthren-3-one]
[1]
  direction of transcript regulation: more transcripts were decreased than increased
[2]
  peaks of PR binding identified: 6312
[3]
  PR binding regions detected: 8117
[4]
  cluster of transcripts decreased at all time points, beginning to return toward basal levels at 24 h: 26

## CC(=O)[C@H]1CC[C@H]2[C@@H]3CCC4=CC(=O)CC[C@]4(C)[C@H]3CC[C@]12C [progesterone]
[5]
  dissociation from PR compared with ORG2058: dissociates from PR more rapidly
